From US20130204033A1, “ANTIPROLIFERATIVE COMPOUNDS, CONJUGATES THEREOF, METHODS THEREFOR, AND USES THEREOF” (Medarex, Inc., priority 2009, published 2013) come the findings set out here.

Format in all cases: cell-based, human
In one assay the test system is Hep3B. The assay is described as follows: 3H thymidine proliferation assay, Hep3B. Conditions: Homo sapiens, Hep3B, read-out: EC50, Hep3B, 3H thymidine method, 72 h incubation. In outline: (§1)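 Tumour cells were plated at 1.0×10^4 per well and, after 3 h, treated with threefold serial dilutions of compound or conjugate. Total incubation was 72 h, with a 1.0 μCi ^3H-thymidine pulse over the last 24 h. Counts gave the 50% inhibition concentration (EC50).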

The next assay relates to U-87 MG. Description: 3H thymidine proliferation assay, U-87 MG. As to conditions: Homo sapiens, U-87 MG, read-out: EC50, U-87 MG, 3H thymidine method, 72 h incubation. In a few lines: as §1
In the next assay the test system is A549. The assay is described as follows: 3H thymidine proliferation assay, A549. Conditions: Homo sapiens, A549, read-out: EC50, A549, 3H thymidine method, 72 h incubation. In outline: as §1
A further assay deals with SKOV3. The assay is described as follows: 3H thymidine proliferation assay, SKOV3. Conditions: Homo sapiens, SK-OV-3, read-out: EC50, SKOV3, 3H thymidine method, 72 h incubation. In outline:
as §1

For a further assay, the system named is UO-31. The assay is described as follows: 3H thymidine proliferation assay, UO-31. Conditions: Homo sapiens, UO-31, read-out: EC50, UO-31, 3H thymidine method, 72 h incubation. In a few lines:
as §1

In assay [1] the test system is DMS53. Description: 3H thymidine proliferation assay, DMS53. As to conditions: Homo sapiens, DMS-53, read-out: EC50, DMS53, 3H thymidine method, 72 h incubation. In a few lines:
as §1

In the next assay the test system is SK-BR3. The assay is described as follows: 3H thymidine proliferation assay, SK-BR3. Conditions: Homo sapiens, SK-BR-3; 3H thymidine method, 72 h incubation. In outline:
as §1

The test system of assay [2] is OVCAR3. Description: 3H thymidine proliferation assay, OVCAR3. Conditions: Homo sapiens, OVCAR-3, read-out: EC50, OVCAR3, 3H thymidine method, 72 h incubation. In a few lines:
as §1

Another assay concerns HL-60. Description: 3H thymidine proliferation assay, HL-60. As to conditions: Homo sapiens, HL-60, read-out: EC50, HL-60, 3H thymidine method, 72 h incubation. In a few lines: as §1
The test system of a further assay is MDA-MB-231. Description: ATP luminescence proliferation assay, MDA-MB-231. As to conditions: Homo sapiens. How it is done:
(§2) This example generally describes the procedures used to assay the antiproliferative activity of compounds of this invention or their conjugates. Human tumor cell lines were obtained from the American Type Culture Collection (ATCC), P.O. Box 1549, Manassas, Va. 20108, USA, and cultured according to instruction from the ATCC. Cells were seeded at 1.0×10^3 or 1.0×10^4 cells/well in 96-well plates for 3 h for ATP assays or ^3H thymidine assays, respectively. 1:3 serial dilutions of free (unconjugated) compounds or their conjugates were added to the wells. Plates were allowed to incubate for 24 to 72 h. The ^3H thymidine plates were pulsed with 1.0 μCi of ^3H-thymidine per well for the last 24 hours of the total incubation period, harvested, and read on a Top Count Scintillation Counter (Packard Instruments, Meriden, Conn.). ATP levels in the ATP plates were measured using the […]-GLO® Luminescent Cell Viability kit following the manufacturer's manual and read on a GLOMAX® 20/20 luminometer (both from Promega, Madison, Wis., USA). The EC50 values—the concentration at which an agent inhibits or reduces cell proliferation by 50% —were determined using PRISM™ software, version 4.0 (GraphPad Software, La Jolla, Calif., USA).
(§3) Using the ^3H thymidine or the ATP luminescence assay, or both, the activities of compounds of this invention were assayed against the following cancer cell lines: HCT-15 (colorectal cancer, multi-drug resistant (MDR)); Hep3B (liver cancer); LNCaP (prostate cancer, androgen receptor positive (AR^+)); MDA-MB-231 (breast cancer, estrogen receptor, progesterone receptor, and Her2 negative (triple negative)); A2058 (melanoma); U-87 MG (glioblastoma); NCI-H460 (NSCLC); A549 (NSCLC); HPAC (pancreatic cancer, primary); PC3 (prostate cancer, AR); BT474 (breast cancer, Her2 highly positive (Her2hi)); SKOV3 (ovarian cancer, Her2hi); 786-O (renal cancer); UO-31 (renal cancer, MDR); NCI-H740 (SCLC); DMS53 (SCLC); SK-BR3 (breast cancer, Her2hi); ZR-75 (breast cancer, estrogen receptor positive); OVCAR3 (ovarian cancer); HL-60 (APL); OVCAR8/Adr (ovarian cancer, MDR); CEM-Cl (ALL); Nomo-1 (AML); RPMI-8226 (MM)); Raji (lymphoma); SW-480 (colorectal cancer, metastatic); SW-620 (colorectal cancer); and H226 (lung cancer). (Not all compounds were assayed against all cell lines.)
(§4) Table 3 provides the data for the ATP luminescence proliferation assays, with an incubation period of 48, 72, or 96 h, as noted.

The test system of the next assay is A2058. Description: ATP luminescence proliferation assay, A2058. As to conditions: Homo sapiens. How it is done: as §2, §3, §4
For a further assay, the system named is NCI-H460. The assay is described as follows: ATP luminescence proliferation assay, NCI-H460. As to conditions: Homo sapiens. How it is done:
as §2, §3, §4

A further assay relates to BT474. The assay is described as follows: ATP luminescence proliferation assay, BT474. As to conditions: Homo sapiens, BT-474, 48 h, read-out: EC50 BT474 (48 h), ATP luminescence, BT474, 48 h incubation. As to the method:
as §2, §3, §4

The next assay deals with 786-O. Description: ATP luminescence proliferation assay, 786-O. As to conditions: Homo sapiens, 786-0, 72 h, read-out: EC50 786-O (72 h), ATP luminescence, 786-O, 72 h incubation. In a few lines: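 Read-out: luminescent ATP cell viability after 48, 72 or 96 h incubation, as noted, with 1:3 serial dilutions of unconjugated compounds or their conjugates. Plating was 1.0×10^3 cells/well, 3 h before dosing. EC50 = concentration giving 50% inhibition of proliferation.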

In assay [3] the test system is DMS53. Description: ATP luminescence proliferation assay, DMS53. Conditions: Homo sapiens, DMS-53, 48 h, read-out: EC50 DMS53 (48 h), ATP luminescence, DMS53, 48 h incubation. How it is done: as §2, §3, §4
Another assay relates to ZR-75. Description: ATP luminescence proliferation assay, ZR-75. As to conditions: Homo sapiens, ZR75, 48 h, read-out: EC50 ZR-75 (48 h), ATP luminescence, ZR-75, 48 h incubation. How it is done:
as §2, §3, §4

The test system of assay [4] is OVCAR3. Description: ATP luminescence proliferation assay, OVCAR3. Conditions: Homo sapiens, OVCAR-3, 48 h, read-out: EC50 OVCAR3 (48 h), ATP luminescence, OVCAR3, 48 h incubation. In outline: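 Human tumor lines, cultured per supplier instructions, are plated at 1.0×10^3 cells/well and allowed 3 h before 1:3 serially diluted test agents are added. Viability is read as ATP luminescence after 48, 72 or 96 h.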

The test system of a further assay is SW-620. The assay is described as follows: ATP luminescence proliferation assay, SW-620. As to conditions: Homo sapiens, SW-620, 96 h, read-out: EC50 SW-620 (96 h), ATP luminescence, SW-620, 96 h incubation. How it is done:
as §2, §3, §4

Where two headings read alike, the source gives them in different places. A value given as a limit tells only on which side of the number the result lay.

A word on the EC50: it is the midpoint of the concentration-response curve. As for `CC[C@H](C)[C@H](NC(=O)[C@H]1CCCCN1C)C(=O)N(C)[C@H](C[C@@H](OC)c1nc(C(=O)N[C@H](CC(=O)OC)Cc2ccccc2)cs1)C(C)C` [Compound 25], the EC50 in the assay with Hep3B is 305 nM; in the assay with U-87 MG, 271 nM; in the assay with A549 it was 270 nM; with SKOV3, 180 nM; with UO-31, 435 nM; in the assay with DMS53 [1], 515 nM. Besides, the 50% effective concentration (EC50) stood at 1710 nM in the assay with SK-BR3; 379 nM in the assay on OVCAR3 [2]; 308 nM with HL-60; 202 nM in the assay with MDA-MB-231 (MDA-MB-231, 72 h, read-out: EC50 MDA-MB-231 (72 h), ATP luminescence, MDA-MB-231, 72 h incubation); 212 nM with A2058 (A2058, 72 h, read-out: EC50 A2058 (72 h), ATP luminescence, A2058, 72 h incubation); 177 nM in the assay on NCI-H460 (NCI-H460, 72 h, read-out: EC50 NCI-H460 (72 h), ATP luminescence, NCI-H460, 72 h incubation). Moreover, the EC50 is 166 nM with BT474; 306 nM in the assay on 786-O; 366 nM in the assay with DMS53 [3]; 1000 nM with ZR-75; greater than 3000 nM in the assay on OVCAR3 [4]; 193 nM in the assay with SW-620.
On to `CC[C@H](C)[C@H](NC(=O)[C@H]1CCCCN1C)C(=O)N(C)[C@H](C[C@@H](OC)c1nc(C(=O)NC(Cc2ccccc2)C[C@H](C)C(=O)O)cs1)C(C)C` (stereo partly drawn) [Compound 15], for which the EC50 in the assay with Hep3B amounted to 1.6 nM; in the assay with U-87 MG it was 0.42 nM; with A549, 2.1 nM; with SKOV3 it was 2.6 nM; in the assay on UO-31, 15 nM; in the assay with DMS53 [1] it was 37 nM. Moreover, the EC50 is 17 nM in the assay on SK-BR3; greater than 100 nM with OVCAR3 [2]; 0.6 nM in the assay with HL-60; 5.6 nM with MDA-MB-231 (MDA-MB-231, 48 h, read-out: EC50 MDA-MB-231 (48 h), ATP luminescence, MDA-MB-231, 48 h incubation); 3.5 nM with A2058 (A2058, 48 h, read-out: EC50 A2058 (48 h), ATP luminescence, A2058, 48 h incubation); 6.7 nM in the assay on NCI-H460 (NCI-H460, 48 h, read-out: EC50 NCI-H460 (48 h), ATP luminescence, NCI-H460, 48 h incubation). Further, the EC50 with BT474 was 3.5 nM; with 786-O, 9.4 nM; in the assay on DMS53 [3], 32 nM; with ZR-75, 13 nM; with OVCAR3 [4], greater than 100 nM; in the assay with SW-620 it was 3.7 nM.
